Source: patent US20150315218A1, “SALTS OF PRODRUGS OF PIPERAZINE AND SUBSTITUTED PIPERIDINE ANTIVIRAL AGENTS” (Bristol-Myers Squibb Company, priority 2004, published 2015)
“Also recorded” adds a separate entry of the source. Where a name gives a salt, the structure may show the parent alone. Read-outs that look alike come from different tables or passages of the source.

Legend:
[1] = Multiple dose study of Compound IVa in healthy humans; assay type: in vivo, human; conditions: multiple Q12H doses, 14 days
Description: A placebo-controlled, ascending multiple-dose study to evaluate the safety, tolerability and pharmacokinetics of Compound IVa in healthy human subjects was carried out. Dosing was continued at 12 h intervals for 14 days. […] Thus, the exposure was better when dosing was combined with a high fat meal and exposure increases with dose were higher with a high fat meal.

[2] = Effect of food on oral absorption of IVa in dogs after Iab or IVa capsules; assay type: in vivo, dog; conditions: for AUC / Cmax / Tmax / half-life: dog, po, 20 mg/kg
Description: To study the effect of food on the oral absorption of IVa after administration of Iab and IVa, these two compounds were administered in capsules as solid to a group of three dogs in a cross-over fashion under overnight fasting and fed conditions. There was a one-week washout period between each study. Iab was administered at 200 mg per dog (ca 20 mg/kg) of IVa equivalent; IVa was administered in a clinical capsule formulation at 200 mg per dog (ca 20 mg/kg). In the studies where the dogs were fed, the following meal was prepared: 2 slices of bacon, 2 eggs, 2 pieces of toast with butter and jelly, 4 oz. hash browns and 8 oz. of whole milk. After homogenization using a laboratory blender, the meal was equally divided into five portions and kept frozen. Before the study, the meals were thawed and each dog was fed one portion.

[3] = Oral dose escalation study in rats (Study D of Ica; historical Study E of IVc); assay type: in vivo; conditions: Sprague-Dawley, rat, plasma; for concentration at 24 h: read-out: C-24 hr; for AUC: read-out: Mean AUCtot
Description: Pharmacokinetic analysis was performed on Kinetica™.
The brain samples were blotted dry and the wet weights were recorded.

[4] = target: T1, human placental alkaline phosphatase (ALP) (Homo sapiens, UniProt P05187); assay: Hydrolysis of prodrug in human placental ALP solutions; assay type: in vitro ADME; conditions: human placental ALP solution, 37°C, 120 min, read-out: t1/2 (min) of prodrug disappearance
T1 construct: To study the hydrolysis of lab in a purified form of human ALP, Iab was incubated in human placental ALP solutions; host or cells: human placenta (inferred from the name and from 'ALP derived from humans')
T1 sequence (P05187 23-506 limits assumed): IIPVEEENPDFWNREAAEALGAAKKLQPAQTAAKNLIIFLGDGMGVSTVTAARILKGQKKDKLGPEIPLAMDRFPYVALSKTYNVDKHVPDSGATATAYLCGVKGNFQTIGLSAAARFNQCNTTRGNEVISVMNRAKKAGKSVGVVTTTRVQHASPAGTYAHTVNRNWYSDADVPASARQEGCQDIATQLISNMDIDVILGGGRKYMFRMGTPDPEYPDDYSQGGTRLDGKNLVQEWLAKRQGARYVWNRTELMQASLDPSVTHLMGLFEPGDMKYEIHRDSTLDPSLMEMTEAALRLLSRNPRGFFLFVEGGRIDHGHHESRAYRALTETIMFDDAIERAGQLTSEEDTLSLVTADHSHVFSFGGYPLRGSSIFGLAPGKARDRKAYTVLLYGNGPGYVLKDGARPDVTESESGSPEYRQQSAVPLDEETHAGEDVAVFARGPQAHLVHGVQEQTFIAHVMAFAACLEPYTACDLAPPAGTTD
Description: (§1) Solid human placental ALP was obtained from Sigma (P-3895, St. Louis, Mo.). […] Solutions of 100 and 10 units/L were obtained by serial dilution. Iab was incubated in the 10, 100 and 1000 units/L solutions (n=2) at 37° C. for 2 hr. The starting concentration of Iab in the incubation was 10 μM. Aliquots of 100 μL samples were taken at pre-determined times and added into K2EDTA microtainers followed by the addition of 200 μL of acetonitrile.
as §1, with “Ibb” for “Iab”
as §1, with “Icb” for “Iab”, “acetonitrile. The supernatant was analyzed for both Icb and IVe by LC/MS/MS.” for “acetonitrile.”

[5] = Aqueous / crystalline solubility; conditions: aqueous solution
[6] = Solution and solid stability; assay type: physicochemical
Caco-2 cells = assay: Hydrolysis of prodrug in Caco-2 cells; assay type: in vitro ADME
[7] = monkey
Description: (§2) The stability of Iab was studied in fresh blood and serum from rat, dog, monkey and human (n=2). The blood was collected in vacutainers containing K2EDTA (Becton Dickinson, Franklin Lakes, N.J.). The serum was collected in vacutainers containing no anticoagulant. Iab was incubated at a starting concentration of approximately 10 μM for 60-90 min at 37° C. Serial samples were taken at the pre-determined times. Aliquots of blood samples (200 μL) were first mixed with 100 μL of water followed by 400 μL of acetonitrile. The serum samples (50 μL) were added into microtainers containing K2EDTA (Becton Dickinson, Franklin Lakes, N.J.) followed by the addition of 100 μL of acetonitrile. The supernatant was analyzed for both Iab and IVa by LC/MS/MS. The stability of Ibb was studied in fresh blood and serum from rat, dog, monkey and human (n=2). The blood was collected in vacutainers containing K2EDTA (Becton Dickinson, Franklin Lakes, N.J.). The serum was collected in vacutainers containing no anticoagulant. Ibb was incubated at a starting concentration of approximately 15 μM for 90 min at 37° C. Serial samples were taken at the pre-determined times. Aliquots of blood samples (200 μL) were first mixed with 100 μL of water followed by 400 μL of acetonitrile. The serum samples (50 μL) were added into microtainers containing K2EDTA (Becton Dickinson, Franklin Lakes, N.J.) followed by the addition of 100 μL of acetonitrile. […] The stability of Icb was studied in fresh blood and serum from rat, dog, monkey and human (n=2). The blood was collected in vacutainers containing K2EDTA (Becton Dickinson, Franklin Lakes, N.J.). The serum was collected in vacutainers containing no anticoagulant. Icb was incubated at a starting concentration of approximately 10 μM for 90 min at 37° C. Serial samples were taken at the pre-determined times. Aliquots of blood samples (200 μL) were first mixed with 100 μL of water followed by 400 μL of acetonitrile. The serum samples (50 μL) were added into microtainers containing K2EDTA (Becton Dickinson, Franklin Lakes, N.J.) followed by the addition of 100 μL of acetonitrile.

[8] = rat
Description: as §2

[9] = dog
Description: as §2

[10] = human
Description: as §2

[11] = in vivo, dogs, IVa Clinical Form Capsules, Fasting
[12] = in vivo, dogs, IVa Clinical Form Capsules, Fed
[13] = plasma, IVa after Iab dry-filled capsules, Fasting
[14] = plasma, IVa after Iab dry-filled capsules, Fed
[15] = dogs, IVa Clinical Form Capsules (20 mg/kg)
[16] = pH 7.5, ALP Activity 10 Units/L
[17] = pH 7.5, ALP Activity 100 Units/L
[18] = pH 7.5, ALP Activity 1000 Units/L

COc1ncc(OC)c2c(C(=O)C(=O)N3CCN(C(=O)c4ccccc4)CC3)c[nH]c12 [IVa, N-(benzoyl)-N′-[(4,7-dimethoxy-6-azaindol-3-yl)-oxoacetyl]piperazine]
accumulation [1]: ≤ 1.5 fold | AUC ([2]; in vivo, dogs, IVa Clinical Form Capsules (20 mg/kg), Fed): 96 ± 10 µM·h | Cmax [2, 11]: 1.2 ± 0.22 µM | Tmax [2, 11]: 3.3 ± 1.2 h | Cmax [2, 12]: 11 ± 0.99 µM | Tmax [2, 12]: 4 h | Cmax [2, 13]: 70 ± 12 µM | Tmax [2, 13]: 2 h | half-life [2, 13]: 252 ± 25.2 min | Cmax [2, 14]: 130 ± 102 µM | Tmax [2, 14]: 1.5 ± 0.87 h | half-life [2, 14]: 192 ± 60 min | AUC ([2]; plasma, IVa in dogs after Iab dry-filled capsules (20 mg/kg of IVa equivalent), Fasting, n = 3): 414 ± 70 µM·h | AUC ([2]; plasma, IVa in dogs after Iab dry-filled capsules (20 mg/kg of IVa equivalent), Fed): 422 ± 57 µM·h | AUC ([2]; plasma, dogs, IVa Clinical Form Capsules (20 mg/kg), Fasting, n = 3): 11 ± 1.4 µM·h | half-life ([2]; plasma, dogs, IVa Clinical Form Capsules, Fasting): 318 ± 162 min | half-life ([2]; plasma, dogs, IVa Clinical Form Capsules, Fed): 480 ± 186 min | improvement in AUC and Cmax (exposure) in fed vs fasted dogs ([2]; dogs receiving IVa clinical capsule, high fat meal): 9 fold | AUCtot Fed/Fasting Ratio [2, 15]: 9.0 ± 2.2 | Cmax Fed/Fasting Ratio [2, 15]: 9.1 ± 0.92

COc1cnc(-n2cnc(C)n2)c2[nH]cc(C(=O)C(=O)N3CCN(C(=O)c4ccccc4)CC3)c12 [IVc]
concentration at 24 h ([3]; oral, 25 mg/kg): 610 nM | concentration at 24 h ([3]; oral, 75 mg/kg): 5200 nM | concentration at 24 h ([3]; oral, 200 mg/kg): 10000 nM | Cmax ([3]; po, 25 mg/kg): 46 µM | Tmax ([3]; po, 25 mg/kg): 4 h | AUC ([3]; po, 25 mg/kg): 458 µM·h | Cmax ([3]; po, 75 mg/kg): 86 µM | Tmax ([3]; po, 75 mg/kg): 5 h | AUC ([3]; po, 75 mg/kg): 1070 µM·h | Cmax ([3]; po, 200 mg/kg): 42 µM | Tmax ([3]; po, 200 mg/kg): 4 h | AUC ([3]; po, 200 mg/kg): 518 µM·h | Cmax ([3]; male, po, 5 mg/kg): 29 ± 14 µM | Tmax ([3]; male, po, 5 mg/kg): 0.5 ± 0.25 h | concentration at 24 h ([3]; male, po, 5 mg/kg): 29 ± 8 nM | AUC ([3]; male, po, 5 mg/kg): 109 ± 15 µM·h | Cmax ([3]; male, po, 25 mg/kg): 98 ± 21 µM | Tmax ([3]; male, po, 25 mg/kg): 1.7 ± 2 h | concentration at 24 h ([3]; male, po, 25 mg/kg): 350 ± 130 nM | AUC ([3]; male, po, 25 mg/kg): 586 ± 53 µM·h | Cmax ([3]; male, po, 200 mg/kg): 281 ± 55 µM | Tmax ([3]; male, po, 200 mg/kg): 1.1 ± 0.8 h | concentration at 24 h ([3]; male, po, 200 mg/kg): 58000 ± 36000 nM | AUC ([3]; male, po, 200 mg/kg): 2920 ± 304 µM·h

COc1cnc(OC)c2c1c(C(=O)C(=O)N1CCN(C(=O)c3ccccc3)CC1)cn2COP(=O)(O)O [Iab, {3-[(4-benzoylpiperazin-1-yl)(oxo)acetyl]-4,7-dimethoxy-1H-pyrrolo[2,3-c]pyridin-1-yl}methyl dihydrogen phosphate, L-lysine salt (1:1)]
half-life at 10 μM [4, 16]: 186 min | half-life at 10 μM [4, 17]: 14 min | half-life at 10 μM [4, 18]: 1.4 min | concentration of aqueous solutions prepared for in vivo toxicology studies [5]: > 100 mg/mL | solution and solid stabilities [6]: acceptable solution and solid stabilities | AUC of IVa from Iab capsules (fasted dogs) relative to fed dogs given IVa clinical capsule ([2]; 200 mg/dog of IVa equivalent): 4 times | Cmax of IVa from Iab capsules (fasted dogs) relative to fed dogs given IVa clinical capsule ([2]; 200 mg/dog of IVa equivalent): 6 times | difference in AUC and Cmax of IVa between fasted and fed dogs ([2]; dogs receiving Iab capsules): No significant differences; also recorded: not significantly different | Cmax of IVa from Iab capsules relative to IVa clinical capsule in fasted dogs ([2]; fasted dogs, 200 mg/dog of IVa equivalent): 58 times

O=C(C(=O)N1CCN(C(=O)c2ccccc2)CC1)c1cn(COP(=O)(O)O)c2c(-n3ccnn3)ncc(F)c12 [Ibb, [3-[(4-benzoylpiperazin-1-yl)(oxo)acetyl]-4-fluoro-7-(1H-1,2,3-triazol-1-yl)-1H-pyrrolo[2,3-c]pyridin-1-yl]methyl dihydrogen phosphate, L-lysine salt (1:1)]
half-life at 10 μM [4, 16]: 198 min | half-life at 10 μM [4, 17]: 16 min | half-life at 10 μM [4, 18]: 2 min | concentration of aqueous solutions prepared for in vivo toxicology studies [5]: > 75 mg/mL | solution and solid stabilities [6]: acceptable solution and solid stabilities | hydrolysis to parent in Caco-2 cells (Caco-2 cells): completely hydrolyzed

COc1cnc(-n2cnc(C)n2)c2c1c(C(=O)C(=O)N1CCN(C(=O)c3ccccc3)CC1)cn2COP(=O)(O)O [Icb, [3-[(4-benzoylpiperazin-1-yl)(oxo)acetyl]-4-methoxy-7-(3-methyl-1H-1,2,4-triazol-1-yl)-1H-pyrrolo[2,3-c]pyridin-1-yl]methyl dihydrogen phosphate, 2-amino-2-(hydroxymethyl)propane-1,3-diol salt (1:1)]
conversion of prodrug to parent in blood containing EDTA [7]: < 2% | Icb ([7]; 0 min): 12 µM | Icb ([7]; 15 min): 12 µM | Icb ([7]; 90 min): 11 µM | half-life at 10 μM [4, 16]: 250 min | half-life at 10 μM [4, 17]: 29 min | half-life at 10 μM [4, 18]: 2.4 min | conversion of prodrug to parent in blood containing EDTA [8]: < 2% | Icb ([8]; 0 min): 12 µM | Icb ([8]; 15 min): 11 µM | Icb ([8]; 90 min): 12 µM | conversion of prodrug to parent in blood containing EDTA [9]: < 2% | Icb ([9]; 0 min): 10 µM | Icb ([9]; 15 min): 10 µM | Icb ([9]; 90 min): 11 µM | conversion of prodrug to parent in blood containing EDTA [10]: < 2% | Icb ([10]; 0 min, 10 μM): 11 µM | Icb ([10]; 15 min): 11 µM | Icb ([10]; 30 min): 13 µM | Icb ([10]; 45 min, 10 μM): 12 µM | Icb ([10]; 60 min, 10 μM): 11 µM | Icb ([10]; 90 min, 10 μM): 11 µM
